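How tested: cells in 96-well plates exposed to compound for 48 hours at five concentrations. GI50 marks 50% less growth.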 Active and inactive are the calls of the source. Rule as the data show it: active = GI50 up to about 1.1 µM and inactive = higher.
Tests used:
Experiment in all cases: NCI tumour cell line growth inhibition, 48 h
OVCAR-8 = tested on: OVCAR-8
LOX IMVI = tested on: LOX IMVI
SF-539 = tested on: SF-539
SF-268 = tested on: SF-268
EKVX = tested on: EKVX
CCRF-CEM = tested on: CCRF-CEM
NCI-H522 = tested on: NCI-H522
A549 = tested on: A549
M19-MEL = tested on: M19-MEL
SNB-78 = tested on: SNB-78
HOP-92 = tested on: HOP-92
SK-OV-3 = tested on: SK-OV-3
DMS-273 = tested on: DMS-273
OVCAR-5 = tested on: OVCAR-5
SNB-75 = tested on: SNB-75
DMS-114 = tested on: DMS-114
OVCAR-3 = tested on: OVCAR-3
HOP-62 = tested on: HOP-62
NCI-H460 = tested on: NCI-H460
SF-295 = tested on: SF-295
LXFL 529 = tested on: LXFL 529
UACC-257 = tested on: UACC-257
MOLT-4 = tested on: MOLT-4
SNB-19 = tested on: SNB-19
SN12C = tested on: SN12C
SW-620 = tested on: SW-620
HCT-15 = tested on: HCT-15
UO-31 = tested on: UO-31
Malme-3M = tested on: Malme-3M
SK-MEL-28 = tested on: SK-MEL-28
U-251 = tested on: U-251
KM-20L2 = tested on: KM-20L2
SK-MEL-2 = tested on: SK-MEL-2
NCI-H23 = tested on: NCI-H23
TK-10 = tested on: TK-10
ACHN = tested on: ACHN
NCI-H226 = tested on: NCI-H226
SR = tested on: SR
M14 = tested on: M14
OVCAR-4 = tested on: OVCAR-4
KM12 = tested on: KM12
HCT-116 = tested on: HCT-116
HL-60 = tested on: HL-60
DLD-1 = tested on: DLD-1
HT-29 = tested on: HT-29
RPMI-8226 = tested on: RPMI-8226
COLO 205 = tested on: COLO 205
SK-MEL-5 = tested on: SK-MEL-5
786-0 = tested on: 786-0
Hs-578T = tested on: Hs-578T
MDA-N = tested on: MDA-N
BT-549 = tested on: BT-549
CAKI-1 = tested on: CAKI-1
IGROV-1 = tested on: IGROV-1
HCC 2998 = tested on: HCC 2998
HOP-18 = tested on: HOP-18
NCI/ADR-RES = tested on: NCI/ADR-RES
PC-3 = tested on: PC-3
DU-145 = tested on: DU-145
T47D = tested on: T47D
MDA-MB-435 = tested on: MDA-MB-435
K562 = tested on: K562
UACC-62 = tested on: UACC-62
RXF 393 = tested on: RXF 393

Measured: GI50

CCNc1nnc(CSc2nc(-c3ccccc3)c(-c3ccccc3)[nH]2)s1
18.3 µM: HCT-15
inactive: OVCAR-8 14 µM | LOX IMVI 16.5 µM | SF-539 18.7 µM | SF-268 15.7 µM | EKVX 14.3 µM | CCRF-CEM 18.3 µM | NCI-H522 19.9 µM | A549 28.7 µM | M19-MEL 16.3 µM | SNB-78 30.8 µM | HOP-92 15.8 µM | SK-OV-3 20.1 µM | DMS-273 22.2 µM | OVCAR-5 21.4 µM | SNB-75 23 µM | DMS-114 20.7 µM | OVCAR-3 20.6 µM | HOP-62 19.9 µM | NCI-H460 24.9 µM | SF-295 17.7 µM | LXFL 529 24.7 µM | UACC-257 17.3 µM | MOLT-4 20.5 µM | SNB-19 16.7 µM | SN12C 20.8 µM | SW-620 20.2 µM | UO-31 14 µM | Malme-3M 21.5 µM | SK-MEL-28 14.6 µM | U-251 13.7 µM | KM-20L2 27.8 µM | SK-MEL-2 20.8 µM | NCI-H23 26.1 µM | TK-10 18.5 µM | ACHN 23.3 µM | NCI-H226 13.4 µM | SR 31 µM | M14 17.5 µM | OVCAR-4 30.5 µM | KM12 9.38 µM | HCT-116 22 µM | HL-60 15.5 µM | DLD-1 22.7 µM | HT-29 19.6 µM | RPMI-8226 15.5 µM | COLO 205 19.1 µM | SK-MEL-5 11.8 µM | 786-0 24.4 µM

CNCCNc1ccc2c3c(nn2CCNCCO)-c2c(O)ccc(O)c2C(=O)c13
active: SF-268 0.0601 µM | Hs-578T 0.166 µM | A549 0.0597 µM | SNB-78 0.526 µM | MDA-N 0.966 µM | BT-549 0.109 µM | CAKI-1 0.101 µM | HOP-92 0.173 µM | OVCAR-5 0.468 µM | DMS-114 0.0575 µM | OVCAR-3 1.03 µM | HOP-62 0.0179 µM | NCI-H460 0.0139 µM | SF-295 0.0681 µM | IGROV-1 0.454 µM | HCC 2998 0.2 µM | SN12C 0.0397 µM | SW-620 0.273 µM | HOP-18 0.508 µM | KM-20L2 0.55 µM | NCI-H23 0.111 µM | PC-3 0.535 µM | NCI-H226 0.0227 µM | SR 0.0519 µM | DU-145 0.0713 µM | KM12 0.211 µM | HCT-116 0.346 µM | T47D 0.635 µM | HT-29 0.378 µM | MDA-MB-435 0.923 µM | 786-0 0.08 µM
inactive: UACC-257 1.81 µM | NCI/ADR-RES 20.8 µM | DLD-1 1.26 µM
1.72 µM: HCT-15

O=C1CCC(c2ccc(Cl)cc2)=NN1c1nsc2ccccc12
inactive: OVCAR-8 31.8 µM | LOX IMVI > 10 µM | SF-539 48.4 µM | K562 22.2 µM | SF-268 38.9 µM | EKVX 23.3 µM | CCRF-CEM 17.7 µM | A549 37.9 µM | M19-MEL 37.2 µM | SNB-78 25.4 µM | HOP-92 21.5 µM | DMS-273 25.6 µM | OVCAR-5 51.2 µM | SNB-75 5.77 µM | DMS-114 27.9 µM | OVCAR-3 17.7 µM | HOP-62 39.2 µM | NCI-H460 29.6 µM | LXFL 529 26.8 µM | UACC-257 22.9 µM | IGROV-1 39.4 µM | MOLT-4 19.7 µM | SNB-19 34.4 µM | HCC 2998 18.2 µM | SN12C 25.6 µM | SW-620 58.1 µM | HOP-18 18.7 µM | UO-31 18 µM | SK-MEL-28 31.6 µM | U-251 34.1 µM | KM-20L2 35.2 µM | SK-MEL-2 19.1 µM | NCI-H23 26.7 µM | TK-10 46.3 µM | UACC-62 43.1 µM | ACHN 34.1 µM | SR 22.3 µM | M14 > 10 µM | OVCAR-4 36.1 µM | KM12 29.2 µM | HCT-116 19.7 µM | HL-60 20 µM | HT-29 30.1 µM | RPMI-8226 19.3 µM | COLO 205 36.5 µM | SK-MEL-5 > 10 µM | RXF 393 11.5 µM
> 10 µM: HCT-15

Reference: ChEMBL document CHEMBL1201862, “PubChem BioAssay data set” (2004)
